Assay results: publication PMC10900215 (JACS Au, 2024)
“And” between values parts separate entries of the source, which are not always exact repeats. Equal values may be shown once.

Legend:
[1] = target: METTL3-14 (Homo sapiens, UniProt Q86U44); assay: biochemical; set-up: with the full-length complex, the recombinant complex construct pFastBacDual-StrepII-GFP-TEV-METTL3-His-TEV-METTL14 was expressed; StrepII (N); GFP (N); TEV site (N); made in house; host or cells: baculovirus/Sf9 insect cells; conditions: inhibition of catalytic activity of METTL3-14, binary FRET assay
Source text: For determining the half maximal inhibitory concentration (IC50) with the full-length complex, the recombinant complex construct pFastBacDual-StrepII-GFP-TEV-METTL3-His-TEV-METTL14 was expressed using the baculovirus/Sf9 insect cell expression system and purified as described previously.[21]
The inhibitory potencies of the PROTACs for METTL3 were quantified by a homogeneous time-resolved fluorescence (HTRF)-based enzyme assay as previously described.[40]

[2] = target: T1, METTL3 (Homo sapiens, UniProt Q86U44); assay: Cellular degradation assay (Western blot), METTL3 in MOLM-13; type: cell-based; conditions: MOLM-13, 24 h, 2 μM compound
T1 construct: METTL3–14 degradation up to 70% of the endogenous level; endogenous in cells; host or cells: MOLM-13, PC3, DU145
Experimental: (§1) MOLM-13, NOMO-1, THP-1, Kasumi-1, PC3, and DU145 cell lines were obtained from DSMZ-German Collection of Microorganisms and Cell Cultures GmbH. Cells were cultured in RPMI 1640 medium (11875093, Thermo Fisher Scientific) containing 10% FBS (16140071, Thermo Fisher Scientific) and 1% penicillin-streptomycin (15140122, Thermo Fisher Scientific) in 5% CO2 at 37 °C in a humidified incubator, with maintained cell densities at 0.5–1 × 10^6 cells/mL. All cell lines were tested negative for mycoplasma contamination (PCR-based assay by Microsynth, Switzerland).
(§2) METTL3 (and METTL14) protein degradation was monitored by Western blot. Cells were treated with the indicated concentration of PROTACs or DMSO control (0.1% (v/v)) for 24h, 37 °C with 5% CO2. Samples were then collected and lysed with RIPA buffer with added protease inhibitors (11697498001, Roche). After SDS-PAGE, proteins were transferred to a nitrocellulose membrane, blocked (with 5% milk, 0.5% BSA in TBST buffer), and incubated overnight with primary antibodies. The following antibodies were used: GAPDH (no. 2118, Cell Signaling, 1:4000), β-actin (ab8226, Abcam, 1:2000), METTL3 (ab195352, Abcam, 1:1000), and METTL14 (ab220031, Abcam, 1:1000). Membranes were scanned using an LI-COR Odyssey DLx imager after incubation with appropriate secondary antibodies (antimouse IgG IRDye 680RD (926–68072, LI-COR, 1:10000) and goat anti-Rabbit IgG IRDye 800CW (926–32211, LI-COR, 1:10000)). Densitometry was performed in Image Studio Lite software and analyzed in GraphPad Prism 9.

[3] = system: METTL14; assay: Cellular degradation assay (Western blot), METTL14 in MOLM-13; type: cell-based, human; conditions: MOLM-13, 24 h, 2 μM compound
Experimental: as §1, §2

[4] = target: T2, ternary complex CRBN/PROTAC/METTL3–14 (Homo sapiens, UniProt Q86U44+Q96SW2); assay: FRET-based ternary complex formation assay (TCFA); type: binding; conditions: for TCFA amplitude (mean ± SEM): Hook curve amplitude, fraction of the maximum of compound 16; for ECmax (nM) ± SD: PROTAC concentration at the maximum of the signal in the TCFA; for ECmax: TCFA, peak of the Hook curve
T2 construct: methyltransferase domains (MTD) of METTL3 (residues 354–580); His6 (N, cleaved yes); made in house; host or cells: METTL3-MTD/METTL14-MTD: baculovirus/Sf9; CRBN-TBD: E. coli Rosetta (DE3), co-expressed with BirA
Experimental: For protein expression, suspension cultures of Sf9 cells in […] medium (Thermo Fisher) were infected at a density of 2 × 10^6 mL^–1. […] The complex was further purified by size exclusion chromatography using a Superdex 200 Increase 10/300 GL column (Cytiva) in 20 mM Tris-Cl, pH 8.0, and 200 mM KCl. The complex was aliquoted and flash-frozen in liquid nitrogen and stored at −80 °C until further use.
Ternary complex formation between the PROTACs, METTL3, and CRBN was quantified by a homogeneous time-resolved fluorescence (HTRF)-based enzyme assay. […] Curves of titrations with the PROTACs were plotted in GraphPad Prism 9.5.1 and fitted with a Gaussian function, if appropriate. […] CRBN^TBD-Avi(biotin) was used at a final concentration of 10 nM. […] Anti-GST Eu^3+-labeled antibody (Cisbio, 61GSTKLB) was used at a final concentration of 0.8 nM. The final reaction volume was 20 μL in 50 mM HEPES (pH 7.5), 150 mM NaCl, 0.1% BSA, 100 mM KF. […] The ratio of the emissions [drawing 1] was considered for further analysis. […] The concentrations resulting in the maximum signal (ECmax) and the amplitudes of the Hook curves were determined from the parameters of the Gaussian fit (if appropriate) or as the coordinates of the data-point with the highest TR-FRET signal.
For the ternary complex formation assay (TCFA), one of the protein partners must have a GST-tag and the other a biotin-tag.

[5] = Cell viability assay (CellTiter-Glo) on MOLM-13; type: cell-based; conditions: human, MOLM-13 cells, average of two biological replicates; for viability at 72 h, […]: 2.5 µM
Experimental: as §1
Cell viability was determined using a CellTiter-Glo luminescent cell viability assay (Promega) based on the detection of ATP according to the manufacturer’s instructions. 100 μL of the reagent was added to each well and incubated for 10 min at room temperature. […] Background luminescence value was obtained from wells containing the CellTiter-Glo reagent and medium without cells. The resulting data was analyzed in GraphPad Prism 9.

T1 sequence (Q86U44 2-580 limits assumed): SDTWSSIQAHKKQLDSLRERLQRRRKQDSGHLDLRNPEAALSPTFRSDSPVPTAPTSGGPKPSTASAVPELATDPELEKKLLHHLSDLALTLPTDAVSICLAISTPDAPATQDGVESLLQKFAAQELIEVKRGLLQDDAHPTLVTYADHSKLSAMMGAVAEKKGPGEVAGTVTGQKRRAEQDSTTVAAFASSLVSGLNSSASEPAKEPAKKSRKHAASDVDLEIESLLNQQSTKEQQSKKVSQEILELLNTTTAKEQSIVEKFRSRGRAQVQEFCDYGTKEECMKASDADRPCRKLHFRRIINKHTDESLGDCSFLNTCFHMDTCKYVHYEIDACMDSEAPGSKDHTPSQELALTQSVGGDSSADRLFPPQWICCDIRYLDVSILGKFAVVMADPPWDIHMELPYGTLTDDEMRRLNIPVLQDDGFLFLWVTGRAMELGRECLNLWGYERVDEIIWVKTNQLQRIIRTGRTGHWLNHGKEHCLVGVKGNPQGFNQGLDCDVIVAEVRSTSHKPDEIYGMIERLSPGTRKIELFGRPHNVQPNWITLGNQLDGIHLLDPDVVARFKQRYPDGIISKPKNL
T1 sequence (Q9HCE5 whole entry partner): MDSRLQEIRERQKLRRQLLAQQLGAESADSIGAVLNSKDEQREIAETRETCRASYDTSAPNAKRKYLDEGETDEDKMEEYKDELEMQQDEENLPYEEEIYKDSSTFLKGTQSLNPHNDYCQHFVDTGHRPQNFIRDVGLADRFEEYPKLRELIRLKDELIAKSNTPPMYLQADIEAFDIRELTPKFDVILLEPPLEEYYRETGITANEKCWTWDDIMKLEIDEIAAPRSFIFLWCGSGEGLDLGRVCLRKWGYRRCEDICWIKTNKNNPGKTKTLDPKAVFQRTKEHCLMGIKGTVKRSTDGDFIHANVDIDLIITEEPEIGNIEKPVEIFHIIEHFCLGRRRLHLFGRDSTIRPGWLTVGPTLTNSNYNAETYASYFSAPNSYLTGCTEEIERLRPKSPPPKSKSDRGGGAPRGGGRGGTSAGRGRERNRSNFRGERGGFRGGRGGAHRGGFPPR
Chain of METTL3-14 (Q86U44 whole entry): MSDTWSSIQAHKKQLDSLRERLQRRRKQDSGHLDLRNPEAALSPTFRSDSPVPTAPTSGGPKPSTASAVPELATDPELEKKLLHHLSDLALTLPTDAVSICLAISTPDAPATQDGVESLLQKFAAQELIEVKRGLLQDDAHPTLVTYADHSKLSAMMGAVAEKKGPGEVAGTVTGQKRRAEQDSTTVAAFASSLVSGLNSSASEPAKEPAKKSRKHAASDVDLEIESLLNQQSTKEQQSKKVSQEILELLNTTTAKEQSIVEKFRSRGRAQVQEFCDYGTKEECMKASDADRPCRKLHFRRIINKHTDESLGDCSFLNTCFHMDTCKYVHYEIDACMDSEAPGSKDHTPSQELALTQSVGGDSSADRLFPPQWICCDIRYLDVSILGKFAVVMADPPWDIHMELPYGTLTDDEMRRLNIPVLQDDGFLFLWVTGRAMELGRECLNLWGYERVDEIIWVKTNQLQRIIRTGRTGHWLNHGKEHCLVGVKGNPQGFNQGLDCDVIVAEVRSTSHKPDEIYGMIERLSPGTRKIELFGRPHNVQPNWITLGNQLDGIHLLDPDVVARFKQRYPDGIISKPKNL
Chain of METTL3-14 (Q9HCE5 whole entry, further chain): as the sequence (Q9HCE5 whole entry partner) above
T2 sequence (Q86U44 354-580): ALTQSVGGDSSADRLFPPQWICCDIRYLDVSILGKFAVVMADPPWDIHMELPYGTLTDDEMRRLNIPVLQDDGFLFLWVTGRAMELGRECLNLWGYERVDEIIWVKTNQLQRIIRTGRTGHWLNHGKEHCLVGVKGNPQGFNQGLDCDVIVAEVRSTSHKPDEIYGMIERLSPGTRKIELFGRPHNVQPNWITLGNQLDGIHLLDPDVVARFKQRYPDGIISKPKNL
T2 sequence (Q9HCE5 107-395 partner limits assumed): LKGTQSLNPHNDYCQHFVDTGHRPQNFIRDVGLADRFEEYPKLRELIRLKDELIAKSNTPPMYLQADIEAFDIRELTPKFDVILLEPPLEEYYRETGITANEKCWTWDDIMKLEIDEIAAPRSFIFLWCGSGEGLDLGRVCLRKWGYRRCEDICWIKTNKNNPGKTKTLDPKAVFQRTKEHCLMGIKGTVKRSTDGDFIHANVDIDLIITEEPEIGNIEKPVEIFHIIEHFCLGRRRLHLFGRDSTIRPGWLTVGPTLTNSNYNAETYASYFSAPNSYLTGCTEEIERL
T2 sequence (Q96SW2 318-442): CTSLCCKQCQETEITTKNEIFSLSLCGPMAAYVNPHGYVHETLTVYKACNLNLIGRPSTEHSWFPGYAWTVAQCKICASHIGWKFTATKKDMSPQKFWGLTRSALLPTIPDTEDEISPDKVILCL

| Compound | IC50 [1] | MOLM-13 West. blot at 24h 2 μM comp conc. Degradation (%) of METTL3 [2] | MOLM-13 West. blot at 24h 2 μM comp conc. Degradation (%) of METTL14 [3] | TCFA amplitude (mean ± SEM) [4] | ECmax (nM) ± SD [4] | ECmax [4] | viability at 72 h, 0.6 µM [5] | viability at 72 h, 1.25 µM [5] | viability at 72 h, […] [5] | viability at 72 h, 5 µM [5] | viability at 72 h, 10 µM [5] |
| --- | --- | --- | --- | --- | --- | --- | --- | --- | --- | --- | --- |
| CC1(C)CCN(Cc2ccc(N3CC(=O)NC4(CCN(c5cc(NCCCNC(=O)CCOCCOCCNc6cccc7c6C(=O)N(C6CCC(=O)NC6=O)C7=O)ncn5)CC4)C3)cc2)CC1 (stereo not drawn) [Compound 1] | 2470 ± 790 nM | / ^a (Degradation <10% or stabilization) | / ^a (Degradation <10% or stabilization) | 0.03 | 6800 (n = 1) nM | 6.8 µM |  |  |  |  |  |
| CC1(C)CCN(Cc2ccc(N3CC(=O)NC4(CCN(c5cc(NCCCNC(=O)CCOCCOCCOCCNc6cccc7c6C(=O)N(C6CCC(=O)NC6=O)C7=O)ncn5)CC4)C3)cc2)CC1 (stereo not drawn) [Compound 2] | 1060 ± 220 nM | / (Degradation <10% or stabilization) | / (Degradation <10% or stabilization) | 0.3 ± 0.1 | 2800 ± 280 nM | 2.8 µM |  |  |  |  |  |
| CC1(C)CCN(Cc2ccc(N3CC(=O)NC4(CCN(c5cc(NCCCNC(=O)CCOCCOCCOCCOCCNc6cccc7c6C(=O)N(C6CCC(=O)NC6=O)C7=O)ncn5)CC4)C3)cc2)CC1 (stereo not drawn) [Compound 3] | 590 ± 130 nM | / (Degradation <10% or stabilization) | / (Degradation <10% or stabilization) | 0.3 ± 0.2 | 1900 (n = 1) nM | 1.9 µM |  |  |  |  |  |
| CC1(C)CCN(Cc2ccc(N3CC(=O)NC4(CCN(c5cc(NCCCNC(=O)CCOCCOCCOCCOCCOCCNc6cccc7c6C(=O)N(C6CCC(=O)NC6=O)C7=O)ncn5)CC4)C3)cc2)CC1 (stereo not drawn) [Compound 4] | 640 ± 120 nM | / (Degradation <10% or stabilization) | / (Degradation <10% or stabilization) | 0.4 | 2000 (n = 1) nM | 2.0 µM |  |  |  |  |  |
| CC1(C)CCN(Cc2ccc(N3CC(=O)NC4(CCN(c5cc(NCCCNC(=O)CCCCCCCCNc6cccc7c6CN(C6CCC(=O)NC6=O)C7=O)ncn5)CC4)C3)cc2)CC1 (stereo not drawn) [Compound 5] | 260 ± 30 nM | / (Degradation <10% or stabilization) | / (Degradation <10% or stabilization) | 0.7 ± 0.1 | 660 ± 20 nM |  |  |  |  |  |  |
| CC1(C)CCN(Cc2ccc(N3CC(=O)NC4(CCN(c5cc(NCCCNC(=O)CCCCCCCCCCNc6cccc7c6CN(C6CCC(=O)NC6=O)C7=O)ncn5)CC4)C3)cc2)CC1 (stereo not drawn) [Compound 6] | 520 ± 60 nM | / (Degradation <10% or stabilization) | / (Degradation <10% or stabilization) | 0.4 | 3600 (n = 1) nM |  |  |  |  |  |  |
| CC1(C)CCN(Cc2ccc(N3CC(=O)NC4(CCN(c5cc(NCCCNC(=O)CCCCCCCCCCCCCCNc6cccc7c6CN(C6CCC(=O)NC6=O)C7=O)ncn5)CC4)C3)cc2)CC1 (stereo not drawn) [Compound 7] | 1220 ± 90 nM | / (Degradation <10% or stabilization) | / (Degradation <10% or stabilization) | 0.1 | 5300 (n = 1) nM |  |  |  |  |  |  |
| CC1(C)CCN(Cc2ccc(N3CC(=O)NC4(CCN(c5cc(NCCCNC(=O)CCCCCCCCCCn6cc(CNc7cccc8c7C(=O)N(C7CCC(=O)NC7=O)C8=O)nn6)ncn5)CC4)C3)cc2)CC1 (stereo not drawn) [Compound 8] | 480 ± 100 nM | / (Degradation <10% or stabilization) | / (Degradation <10% or stabilization) | 0.6 | 2200 (n = 1) nM |  |  |  |  |  |  |
| CC1(C)CCN(Cc2ccc(N3CC(=O)NC4(CCN(c5cc(NCCCNC(=O)CCCCCCCCn6cc(CNc7cccc8c7C(=O)N(C7CCC(=O)NC7=O)C8=O)nn6)ncn5)CC4)C3)cc2)CC1 (stereo not drawn) [Compound 9] | 1800 ± 290 nM | / (Degradation <10% or stabilization) | / (Degradation <10% or stabilization) | 0.4 | 6700 (n = 1) nM |  |  |  |  |  |  |
| CC1(C)CCN(Cc2cc(F)c(N3CC(=O)NC4(CCN(c5cc(NCC6CCN(C(=O)CNc7cccc8c7C(=O)N(C7CCC(=O)NC7=O)C8=O)CC6)ncn5)CC4)C3)cc2F)CC1 (stereo not drawn) [Compound 21] |  | 21% and 21 ± 9% | 23 ± 9% | 1.3 ± 0.1 | 60 ± 30 nM | 0.06 µM | 104% | 105% | 110% | 110% | 102% |
| CC1(C)CCN(Cc2cc(F)c(N3CC(=O)NC4(CCN(c5cc(NCc6ccc(N7CCN(c8cccc9c8C(=O)N(C8CCC(=O)NC8=O)C9=O)CC7)cc6)ncn5)CC4)C3)cc2F)CC1 (stereo not drawn) [Compound 34] |  |  | < 10% | 0.2 ± 0.1 | 120 ± 30 nM |  | 95.8% | 97.3% | 96.3% | 99.2% | 101% |
| CC1(C)CCN(Cc2cc(F)c(N3CC(=O)NC4(CCN(c5cc(NCC6CCN(C(=O)CN7CCN(c8cccc9c8C(=O)N(C8CCC(=O)NC8=O)C9=O)CC7)CC6)ncn5)CC4)C3)cc2F)CC1 (stereo not drawn) [Compound 35] |  | 21% and 21 ± 11% | 25 ± 3% | 0.7 ± 0.2 | 20 ± 0 nM |  |  |  |  |  | 105% |
